Laboratory results: patent publication US12110281B2, “Catechol derivatives or salt thereof, processes for preparing the same, and pharmaceutical compositions comprising the same” (HEXAPHARMATEC CO., LTD., priority 2018, dated 2024)
Values joined by “and” are separate entries in the source; they are usually repeats but may differ in a detail not shown here. Equal entries are not always repeated.

What was measured:
[1] = system: dimethylnitrosamine (DMN)-induced liver injury male SD rats; assay: Liver function-improving activities by oral administration in the liver injury model (1), 3 weeks; format: in vivo, rat; details: serum, 25 mg/kg oral once a day
Text: The compounds according to the present invention were orally administered to dimethylnitrosamine (DMN)-induced liver injury male SD rats for 3 weeks, so as to evaluate liver function-improving activities. Specifically, 7-week-old male SD rats (Orient Bio, Korea) were accommodated to the laboratory environment at room temperature for 7 days. General symptoms were observed and then only healthy animals were used for the experiment. The rats were divided into 9 groups (n=5 for each group), the normal control group, the group to which only DMN is administered, and the groups to which both the compound of the present invention (the compounds of Example 2, 5, 6, 9, 10, 20 or 21) and DMN are administered. DMN was dissolved in purified water and then administered intraperitoneally at the dose of 10 mg/kg for 3 consecutive weeks (3 times per week, for 4 weeks). Blood samples were collected on Day 3 after the completion of the first-week liver injury inducement and then the ALT (Alanine Transaminase) values and the AST (Aspartate Transaminase) values were measured so as to confirm the liver injury thereof. The compounds of the present invention were administered for 3 weeks, i.e., from Day 4 after the completion of the first-week liver injury inducement to the DMN-administering period. The seven compounds of the present invention were dissolved in purified water or corn oil and then orally administered, using an oral sonde, at the dose of 25 mg/kg once a day for 3 weeks. Blood samples were collected on Day 0 (3 days after the completion of the first-week liver injury inducement) and Day 7, 14 and 21 after the administration of the test compounds. The collected blood was injected into a vacutainer tube containing a clot activator and then allowed to stand at room temperature for about 20 minutes so as to coagulate each blood sample. After centrifugation for 10 minutes, the resulting serums were subjected to blood-biochemical tests.

[2] = system: dimethylnitrosamine (DMN)-induced liver injury male SD rats; assay: Liver function-improving activities by oral administration in the liver injury model (2), 4 weeks, serum ALT/AST and liver histology; format: in vivo, rat; details: for ALT values (average value) / AST values (average value): serum
Text: The compounds according to the present invention were orally administered to dimethylnitrosamine (DMN)-induced liver injury male SD rats for 4 weeks, so as to evaluate liver function-improving activities. Specifically, 7-week-old male SD rats (Orient Bio, Korea) were accommodated to the laboratory environment at room temperature for 7 days. General symptoms were observed and then only healthy animals were used for the experiment. The rats were divided into 3 groups (n=10 for each group), the normal control group, the group to which only DMN is administered, and the group to which both the compound of the present invention (the compound of Example 21) and DMN are administered. DMN was dissolved in purified water and then administered intraperitoneally at the dose of 10 mg/kg for 3 consecutive weeks (3 times per week, for 4 weeks). Blood samples were collected after the completion of the fourth-week liver injury inducement and then the ALT (Alanine Transaminase) values and the AST (Aspartate Transaminase) values were measured so as to confirm the liver injury thereof. The compound of the present invention was administered for 4 weeks, from Day 1 after the completion of the fourth-week liver injury inducement. The compound of the present invention (the compound of Example 21) was dissolved in purified water and then orally administered, using an oral sonde, at the dose of 25 mg/kg once a day for 4 weeks. Blood samples were collected on Day 0 (1 day after the completion of the fourth-week liver injury inducement) and Day 7, 14, 21 and 28 after the administration of the test compound. The collected blood was injected into a vacutainer tube containing a clot activator and then allowed to stand at room temperature for about 20 minutes so as to coagulate each blood sample. After centrifugation for 10 minutes, the resulting serums were subjected to blood-biochemical tests. In addition, at 24 hours after the last administration, an autopsy for hepatectomy and fixation was performed to prepare the tissue specimens thereof. After preparing the slides with the tissue specimens, hematoxylin and eosin (H&E) staining was performed thereon for microscopic observation of damages to liver tissue and inflammatory cell infiltrations in liver tissues. In addition, Masson's trichrome staining was also performed thereon for microscopic observation of collagen fiber depositions in liver tissues.
In addition, the results obtained by performing hematoxylin and eosin (H&E) staining and Masson's trichrome staining as described above are shown in FIGS. 3 and 4, respectively. From the results of FIG. 3, the degrees of damages to liver tissue and the degrees of inflammatory cell infiltrations in liver tissues were measured. And also, from the results of FIG. 4, the degrees of collagen fiber depositions in liver tissues were measured.

[3] = 0 week (Day 0, before administration of test compound)
[4] = 3 weeks after the administration
[5] = 4 weeks after the administration
[6] = liver tissue, H&E staining, after 4 weeks 25 mg/kg oral, hydrochloride
[7] = 0 week (Day 0, after 4 weeks DMN), 25 mg/kg oral once a day
[8] = 1 week, 25 mg/kg oral once a day after 4 weeks DMN
[9] = 2 weeks, 25 mg/kg oral once a day after 4 weeks DMN
[10] = 3 weeks, 25 mg/kg oral once a day after 4 weeks DMN
[11] = 4 weeks, 25 mg/kg oral once a day after 4 weeks DMN

CCN(CC)CCOc1ccc(-c2ccc(C(=O)NCC3(N(C)C)CCOCC3)s2)cc1OC.Cl.Cl [Example 21, N-((4-(dimethylamino)tetrahydro-2H-pyran-4-yl)methyl)-5-(4-(2-diethylamino)ethoxy-3-methoxyphenyl)thiophene-2-carboxamide hydrochloride]
ALT values (average value) [1, 3]: 70.98 U/L | AST values (average value) [1, 3]: 142.10 U/L | ALT values (average value) ([1]; 1 week): 98.84 U/L | AST values (average value) ([1]; 1 week): 201.30 U/L | ALT values (average value) ([1]; 2 weeks): 104.54 U/L | AST values (average value) ([1]; 2 weeks): 208.26 U/L | ALT values (average value) ([1]; 3 weeks): 101.18 U/L | AST values (average value) ([1]; 3 weeks): 195.10 U/L | ALT decrease in comparison with the DMN-administered group [2, 4]: 30% | AST decrease in comparison with the DMN-administered group [2, 4]: 22% | ALT decrease in comparison with the DMN-administered group [2, 5]: 26% | AST decrease in comparison with the DMN-administered group [2, 5]: 30% | collagen fiber depositions in liver tissues reduced in comparison with the DMN-administered group ([2]; after 4 weeks): about 62% | damages to liver tissue ameliorated in comparison with the DMN-administered group ([2]; after 4 weeks): about 50% | inflammatory cell infiltrations in liver tissues ameliorated in comparison with the DMN-administered group ([2]; after 4 weeks): ~55% | Degenerative hepatocyte numbers [2, 6]: 276.0 cells/1000 cells and 276.00 ± 16.64 cells/1000 cells | Inflammatory cell numbers [2, 6]: 85.33 cells/mm^2 and 85.33 ± 8.41 cells/mm^2 | Collagen fiber occupied regions ([2]; liver tissue, Masson's trichrome staining, after 4 weeks 25 mg/kg oral, hydrochloride): 10.98 %/mm^2 and 10.98 ± 1.33 %/mm^2 | ALT values (average value) [2, 7]: 198.02 U/L | AST values (average value) [2, 7]: 329.92 U/L | ALT values (average value) [2, 8]: 92.71 U/L | AST values (average value) [2, 8]: 158.91 U/L | ALT values (average value) [2, 9]: 57.61 U/L | AST values (average value) [2, 9]: 107.61 U/L | ALT values (average value) [2, 10]: 44.48 U/L | AST values (average value) [2, 10]: 112.06 U/L | ALT values (average value) [2, 11]: 48.33 U/L | AST values (average value) [2, 11]: 110.45 U/L
